In the supplement of paper PMC10949913:

Columns and labels:
Conditions in all cases: 48 h
CU-ACC1 = test: area under concentration-response curve (viability) (AUC (a.u.)); higher = less active
How it was run: (§1)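 Library compounds were dispensed at 11 concentrations (23 nL each) onto three adrenocortical carcinoma cell lines in 1,536-well plates. Luminescence was recorded after 48 h using CellTiter-Glo, and signals were normalised per plate to vehicle and empty-well controls. Fitted concentration-response curves of inhibitory or non-responding classes only supplied the AC50 and area under the curve.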

NCI-H295R [1] = test: as above
How it was run: as §1

CU-ACC2 = test: as above
How it was run: as §1

NCI-H295R [2] = test: AC50 viability; higher = less potent
How it was run: as §1

With COC(=O)Nc1nc2cc(C(=O)c3ccccc3)ccc2[nH]1 the “area under concentration-response curve” value (CU-ACC1) was 440, the “area under concentration-response curve” value (NCI-H295R [1]) was 412 and the “area under concentration-response curve” value (CU-ACC2) was 475. For the same compound, the AC50 viability (NCI-H295R [2]) was 0.417 µM.
In the case of CCNCC[S+]([O-])(=O)NC[C@]1(S\C(=N/N1C(=O)C(C)(C)C)NC(=O)C(C)(C)C)C2=CC=CC=C2, the “area under concentration-response curve” value (CU-ACC1) is reported as 452, the “area under concentration-response curve” value (NCI-H295R [1]) is reported as 415 and the “area under concentration-response curve” value (CU-ACC2) is reported as 544. It also gave an AC50 viability (NCI-H295R [2]) of 0.209 µM.
With Cc1nc(NC(=O)N2CCCC2C(N)=O)sc1-c1ccnc(C(C)(C)C(F)(F)F)c1 (centres undefined) the “area under concentration-response curve” value (CU-ACC1) was 531, the “area under concentration-response curve” value (NCI-H295R [1]) was 548 and the “area under concentration-response curve” value (CU-ACC2) was 626. The AC50 viability (NCI-H295R [2]) was 13.2 µM.
With CC(C)(O)[C@H]1CC[C@H](Nc2ccc3ncc(-c4cccc(C(F)(F)F)c4)n3n2)CC1 the “area under concentration-response curve” value (CU-ACC1) was 434, the “area under concentration-response curve” value (NCI-H295R [1]) was 460 and the “area under concentration-response curve” value (CU-ACC2) was 490. It also gave an AC50 viability (NCI-H295R [2]) of 11.8 µM.
O=C\1NC(=O)\C(=C1C2=C[NH]C3=C2C=CC=C3)C4=C[NH]C5=C4C=CC=C5 was tested, and the “area under concentration-response curve” value (CU-ACC1) was 504, the “area under concentration-response curve” value (NCI-H295R [1]) was 510 and the “area under concentration-response curve” value (CU-ACC2) was 562. For the same compound, the AC50 viability (NCI-H295R [2]) was 16.6 µM.
With Cc1cccc(/C=N/Nc2cc(N3CCOCC3)nc(OCCc3ccccn3)n2)c1 the “area under concentration-response curve” value (CU-ACC1) was 531, the “area under concentration-response curve” value (NCI-H295R [1]) was 518 and the “area under concentration-response curve” value (CU-ACC2) was 573. For the same compound, the AC50 viability (NCI-H295R [2]) was 18.6 µM.
For Cc1[nH]c2ccccc2c1CCNCc1ccc(/C=C/C(=O)NO)cc1, the “area under concentration-response curve” value (CU-ACC1) was 378, the “area under concentration-response curve” value (NCI-H295R [1]) was 376 and the “area under concentration-response curve” value (CU-ACC2) was 403. For the same compound, the AC50 viability (NCI-H295R [2]) was 4.17 µM.
C/C(=C\c1csc(C)n1)[C@@H]1C[C@@H]2O[C@]2(C)CCC[C@H](C)[C@H](O)[C@@H](C)C(=O)C(C)(C)[C@@H](O)CC(=O)N1 was tested, and the “area under concentration-response curve” value (CU-ACC1) was 478, the “area under concentration-response curve” value (NCI-H295R [1]) was 460 and the “area under concentration-response curve” value (CU-ACC2) was 485. The AC50 viability (NCI-H295R [2]) was 2.09 µM.
With c1ccc(CNc2nc(N3CCOc4ccccc43)nc3c2CCCC3)cc1 the “area under concentration-response curve” value (CU-ACC1) was 449, the “area under concentration-response curve” value (NCI-H295R [1]) was 481 and the “area under concentration-response curve” value (CU-ACC2) was 528. For the same compound, the AC50 viability (NCI-H295R [2]) was 20.9 µM.
For CC(C)n1ncnc1-c1cn2c(n1)-c1ccc(O[C@@H](C)C(N)=O)cc1OCC2, the “area under concentration-response curve” value (CU-ACC1) was 364, the “area under concentration-response curve” value (NCI-H295R [1]) was 491 and the “area under concentration-response curve” value (CU-ACC2) was 582. It also gave an AC50 viability (NCI-H295R [2]) of 1.05 µM.
With COc1cc([C@@H]2c3cc4c(cc3[C@H](O)[C@H]3COC(=O)[C@H]23)OCO4)cc(OC)c1OC the “area under concentration-response curve” value (CU-ACC1) was 452, the “area under concentration-response curve” value (NCI-H295R [1]) was 359 and the “area under concentration-response curve” value (CU-ACC2) was 464. The AC50 viability (NCI-H295R [2]) was 0.0209 µM.
In the case of COc1ccc(OC)c(-c2nnc3ccc(-c4ccc(OC)c(O[C@@H]5CCOC5)c4)nn23)c1, the “area under concentration-response curve” value (CU-ACC1) is reported as 482, the “area under concentration-response curve” value (NCI-H295R [1]) is reported as 541 and the “area under concentration-response curve” value (CU-ACC2) is reported as 624. It also gave an AC50 viability (NCI-H295R [2]) of 5.9 µM.
For O=C(Nc1ncc(-c2cc(C(F)F)nn2-c2c(Cl)cccc2Cl)s1)C1CC1, the “area under concentration-response curve” value (CU-ACC1) was 501, the “area under concentration-response curve” value (NCI-H295R [1]) was 467 and the “area under concentration-response curve” value (CU-ACC2) was 465. The AC50 viability (NCI-H295R [2]) was 0.661 µM.
With COc1cc(OC)c(/C=C/[S+](=O)([O-])Cc2ccc(OC)c(OP(=O)(O)O)c2)c(OC)c1 the “area under concentration-response curve” value (CU-ACC1) was 503, the “area under concentration-response curve” value (NCI-H295R [1]) was 407 and the “area under concentration-response curve” value (CU-ACC2) was 484. It also gave an AC50 viability (NCI-H295R [2]) of 0.0295 µM.
In the case of NC(=O)Nc1cc(-c2ccc(CN3CCOCC3)cc2)sc1C(N)=O, the “area under concentration-response curve” value (CU-ACC1) is reported as 540, the “area under concentration-response curve” value (NCI-H295R [1]) is reported as 519 and the “area under concentration-response curve” value (CU-ACC2) is reported as 597. The AC50 viability (NCI-H295R [2]) was 6.61 µM.
With C[C@@H]1C[C@H]2[C@@H]3\C=C(C)/C4=C/C5=C(C[C@]4(C)[C@H]3[C@@H](O)C[C@]2(C)[C@@]1(O)C(=O)COC(C)=O)C=N[N]5C6=CC=CC=C6 the “area under concentration-response curve” value (CU-ACC1) was 513, the “area under concentration-response curve” value (NCI-H295R [1]) was 529 and the “area under concentration-response curve” value (CU-ACC2) was 608. The AC50 viability (NCI-H295R [2]) was 20.9 µM.
For COc1cccc(-c2cc(F)ccc2C2Cc3nc(N)nc(C)c3C(=O)N2)n1 (centres undefined), the “area under concentration-response curve” value (CU-ACC1) was 379, the “area under concentration-response curve” value (NCI-H295R [1]) was 403 and the “area under concentration-response curve” value (CU-ACC2) was 413. It also gave an AC50 viability (NCI-H295R [2]) of 0.59 µM.
With CC[C@]1(O)C[C@H]2CN(CCC3=C([NH]C4=C3C=CC=C4)[C@@](C2)(C(=O)OC)C5=CC6=C(C=C5OC)N(C=O)[C@H]7[C@](O)([C@H](OC(C)=O)[C@]8(CC)\C=C/CN9CC[C@]67[C@H]89)C(=O)OC)C1 the “area under concentration-response curve” value (CU-ACC1) was 504, the “area under concentration-response curve” value (NCI-H295R [1]) was 471 and the “area under concentration-response curve” value (CU-ACC2) was 590. For the same compound, the AC50 viability (NCI-H295R [2]) was 3.32 µM.
With O=C(O)c1ccc2c(c1)nc(Nc1cccc(Cl)c1)c1ccncc12 the “area under concentration-response curve” value (CU-ACC1) was 517, the “area under concentration-response curve” value (NCI-H295R [1]) was 509 and the “area under concentration-response curve” value (CU-ACC2) was 570. The AC50 viability (NCI-H295R [2]) was 2.63 µM.
In the case of C[C@]12CC[C@@H]3c4ccc(O)cc4CC[C@H]3[C@@H]1CC[C@@H]2O, the “area under concentration-response curve” value (CU-ACC1) is reported as 437, the “area under concentration-response curve” value (NCI-H295R [1]) is reported as 471 and the “area under concentration-response curve” value (CU-ACC2) is reported as 478. The AC50 viability (NCI-H295R [2]) was 11.8 µM.
For O=C(/C=C/c1cccnc1)NCCCCC1CCN(C(=O)c2ccccc2)CC1, the “area under concentration-response curve” value (CU-ACC1) was 300, the “area under concentration-response curve” value (NCI-H295R [1]) was 403 and the “area under concentration-response curve” value (CU-ACC2) was 355. The AC50 viability (NCI-H295R [2]) was 0.0209 µM.
In the case of C[N]1N=CC2=C1C=C(C(=C2)OC3=CC=C(NC(=O)\C4=C\C=C(\C)N(C4=O)C5=CC=C(F)C=C5)C=C3F)C6=C[NH]N=C6, the “area under concentration-response curve” value (CU-ACC1) is reported as 508, the “area under concentration-response curve” value (NCI-H295R [1]) is reported as 539 and the “area under concentration-response curve” value (CU-ACC2) is reported as 626. It also gave an AC50 viability (NCI-H295R [2]) of 7.42 µM.
c1cn2cc(-c3ccc4cn[nH]c4c3)nc(Nc3ccc(N4CCOCC4)cc3)c2n1 was tested, and the “area under concentration-response curve” value (CU-ACC1) was 509, the “area under concentration-response curve” value (NCI-H295R [1]) was 497 and the “area under concentration-response curve” value (CU-ACC2) was 568. It also gave an AC50 viability (NCI-H295R [2]) of 7.42 µM.
Cc1ncc(NC(=O)c2cccc(C(F)(F)F)c2)cc1-c1cnc(OC2CCOCC2)c(N2CCOCC2)c1 was tested, and the “area under concentration-response curve” value (CU-ACC1) was 541, the “area under concentration-response curve” value (NCI-H295R [1]) was 560 and the “area under concentration-response curve” value (CU-ACC2) was 535. It also gave an AC50 viability (NCI-H295R [2]) of 20.9 µM.
With C=CCn1c(=O)c2cnc(Nc3ccc(N4CCN(C)CC4)cc3)nc2n1-c1cccc(C(C)(C)O)n1 the “area under concentration-response curve” value (CU-ACC1) was 452, the “area under concentration-response curve” value (NCI-H295R [1]) was 393 and the “area under concentration-response curve” value (CU-ACC2) was 531. It also gave an AC50 viability (NCI-H295R [2]) of 1.86 µM.
In the case of COc1ccc(-n2c(SCCCN3C(=O)c4cccc5cccc(c45)C3=O)nnc2-c2ccncc2)cc1, the “area under concentration-response curve” value (CU-ACC1) is reported as 422, the “area under concentration-response curve” value (NCI-H295R [1]) is reported as 406 and the “area under concentration-response curve” value (CU-ACC2) is reported as 406. It also gave an AC50 viability (NCI-H295R [2]) of 3.32 µM.
In the case of COC1=CC=CC2=C1C(=NC(=N2)C3=CC=CS3)NN4C(=O)\C=C(C)/C4=O, the “area under concentration-response curve” value (CU-ACC1) is reported as 423, the “area under concentration-response curve” value (NCI-H295R [1]) is reported as 438 and the “area under concentration-response curve” value (CU-ACC2) is reported as 489. The AC50 viability (NCI-H295R [2]) was 5.9 µM.
COc1ccc(-c2oc3ncnc(N)c3c2-c2ccc(NC(=O)Nc3cc(C(F)(F)F)ccc3F)cc2)cc1 was tested, and the “area under concentration-response curve” value (CU-ACC1) was 469, the “area under concentration-response curve” value (NCI-H295R [1]) was 471 and the “area under concentration-response curve” value (CU-ACC2) was 518. For the same compound, the AC50 viability (NCI-H295R [2]) was 13.2 µM.
For CCOc1ccc(Nc2nc(-c3c(C)nc4ccccn34)cs2)cc1, the “area under concentration-response curve” value (CU-ACC1) was 493, the “area under concentration-response curve” value (NCI-H295R [1]) was 487 and the “area under concentration-response curve” value (CU-ACC2) was 497. For the same compound, the AC50 viability (NCI-H295R [2]) was 2.95 µM.
C/C=C(/C)C(=O)O[C@H]1C(C)=C2[C@H]([C@@H]1OC(=O)CCCCCCC)[C@@](C)(OC(C)=O)C[C@H](OC(=O)CCC)[C@@]1(O)[C@H]2OC(=O)[C@@]1(C)O was tested, and the “area under concentration-response curve” value (CU-ACC1) was 465, the “area under concentration-response curve” value (NCI-H295R [1]) was 498 and the “area under concentration-response curve” value (CU-ACC2) was 344. For the same compound, the AC50 viability (NCI-H295R [2]) was 10.5 µM.
CC(C)NC(=O)[C@H]1CC[C@@H](n2c(NC(=O)c3ccc(F)cc3)nc3ccc(CN4CCC(C(C)(C)O)CC4)cc32)CC1 was tested, and the “area under concentration-response curve” value (CU-ACC1) was 465, the “area under concentration-response curve” value (NCI-H295R [1]) was 612 and the “area under concentration-response curve” value (CU-ACC2) was 626. For the same compound, the AC50 viability (NCI-H295R [2]) was 9.11 µM.
